# Results from paper PMC12165799, “Antimicrobial peptide developed with machine learning sequence optimization targets drug resistant Staphylococcus aureus in mice” (The Journal of Clinical Investigation, 2025).
# How the values were obtained:
# [1] = test system: S. aureus MW2 (MRSA) exponential and persister cells; assay: S. aureus persister cell and time-kill assays (MW2); format: cell-based, Staphylococcus aureus; conditions: within 120 minutes; ciprofloxacin 10 μg/mL, bithionol 10 μg/mL
# Protocol: (§1) 305 Minimal inhibitory concentration (MIC) assay
# (§2) We made serial dilutions of 10×
# (§3) We determined the MIC using OD600
# (§4) Accordingly, we added 150 mM NaCl,
# (§5) 319 established protocol (5).
# (§6) 323 aureus VRS1) in PBS. To assess the killing kinetics of CIT-8 in persister cells, we added 1 ml of
# (§7) 324 cell suspension to the wells of a 2-ml deep-well assay block (Cat no. 3960, Corning, NY, USA)
# (§8) We also included ciprofloxacin (at 10 μg/ml) for S.
# (§9) 326 aureus MW2 and linezolid (100 μg/ml) for S. aureus VRS1 as antibiotic controls. Additionally,
# (§10) 327 we included bithionol (at 10 μg/ml) as a positive control, known for its ability to kill stationary
# (§11) 328 phase persister cells (6). We incubated the plates at 37°C, with shaking at 225 rpm. At specific
# (§12) 329 times (0, 15, 30, 60, and 120 min), we collected 10 μl samples, diluted them serially, and then
# (§13) 330 plated them on tryptic soy agar (TSA) (BD Difco, NJ, USA) plates. We incubated the TSA plates
# (§14) 331 for 18 hours at 37°C for colony counting. We performed these experiments in duplicate. As a
# (§15) 332 comparison, we prepared the exponential cells of S. aureus MW2 and VRS1 in PBS and analyzed
# (§16) 333 their killing kinetics in the same manner as described for persister cells.
# [2] = test system: S. aureus VRS1 (VRSA) exponential and persister cells; assay: S. aureus persister cell and time-kill assays (VRS1); format: cell-based, Staphylococcus aureus; conditions: for Reduction of VRSA persister cells / Reduction of exponentially growing VRSA: within 120 minutes, bithionol 10 μg/mL, linezolid 100 μg/mL
# Protocol: as §1, §2, §3, §4, §5, §6, §7, §8, §9, §10, §11, §12, §13, §14, §15, §16
# S. aureus MW2 membrane = assay: Propidium iodide-based membrane permeability; format: cell-based, Staphylococcus aureus; conditions: S. aureus MW2, 60 minutes
# Protocol: 484 min at room temperature in the dark based on a previously established protocol (8). We added 90
# 485 µl of the dye/bacteria mixture to 10 μl of serially diluted 10× peptide concentration in black, 96-
# 486 well plates (Cat. no. 3904, Corning, NY, USA) and incubated the plates for 1 hour at room
# 487 temperature. We measured the fluorescence with excitation and emission wavelengths of 485 nm
# 488 and 525 nm, respectively in endpoint assay mode using a SpectraMax i3x (Molecular Devices,
# 489 CA, USA) fluorescence reader.
# 490 Propidium iodide-based membrane permeability
# 491 We used a propidium iodide (Thermo Fisher Scientific, MA, USA) fluorescence-based
# 492 bacterial permeation assay to establish membrane-oriented interactions with the designed peptides
# 493 based on a previously established protocol (8). We prepared exponential phase S. aureus MW2
# 494 bacteria and diluted to OD600 = 0.4 in PBS. We added PI dye (final concentration = 2 µM) to the
# 495 bacteria in 1:10 serial dilutions in black, 96-well plates (Cat. no. 3904, Corning, NY, USA) and
# 496 incubated the plates for 1 hour at room temperature. We then measured the fluorescence with an
# 497 excitation wavelength of 584 nm and an emission wavelength of 620 nm in endpoint assay mode
# 498 using a SpectraMax i3x (Molecular Devices, CA, USA) fluorescence reader.
# 501 To determine the ATP leakage potential of the peptides, we employed a luciferase-based
# 502 assay(18). In brief, we washed exponential phase of S. aureus MW2 bacteria three times with PBS
# 503 (pH 7.4) and adjusted the washed cells to OD600 = 0.4 in PBS. Following treatment of the bacteria
# 504 with 32 µg/ml of CIT-8 peptide at 37°C for 30 min, we centrifuged the cells at 14,000× g for 5
# 505 min. We transferred 50 µl of each supernatant fraction to black, clear-bottom, 96-well plates
# [3] = test system: S. aureus MW2 biofilm formation; conditions: crystal violet, 24 h
# Protocol: 349 Prevention of S. aureus MW2 biofilm formation
# 350 We evaluated the ability of the citropin 1.1-derived peptides to inhibit biofilm formation
# 351 following an established protocol with modifications (5). In short, we prepared exponential
# 352 cultures of S. aureus MW2 (adjusted to OD600 = 0.01) in TSB medium (supplemented with 0.2%
# 353 glucose) from overnight cultures. We added 90 µl of the bacterial culture to 10 µl of serially diluted
# 354 10× peptide solution in flat-bottomed 96-well polystyrene microtiter plates (Cat no. Corning 3595,
# (§17) We used TSB medium containing
# (§18) 356 bacteria with water as the positive control, while TSB media with sterile water served as the
# (§19) 357 negative control. After incubation, we carefully removed the TSB medium and washed the wells
# (§20) 358 with PBS (Gibco, MD, USA) to remove loosely attached planktonic cells. We quantified the
# (§21) 359 biomass by staining the biofilms with crystal violet following an established protocol and
# (§22) 360 quantitated the concentration of peptide that inhibits 50% of biofilm formation (MBIC50)(8). We
# (§23) 361 measured the live cell count of the biofilms using XTT dye [2,3-bis(2-methyloxy-4-nitro-5-
# 362 sulfophenyl)-2H-tertazolium-5-carboxanilide] (ATCC, VA, USA).
# [4] = test system: S. aureus MW2 24 h established biofilm; conditions: crystal violet, 24 h established biofilm, 24 h treatment
# Protocol: 346 plated onto TSA plates, and incubated plates at 37°C overnight. The next day, we counted the
# 347 viable bacterial colonies.
# as §17, §18, §19, §20, §21, §22, §23
# 362 sulfophenyl)-2H-tertazolium-5-carboxanilide] (ATCC, VA, USA). We calculated the percentage
# 363 of biofilm growth by normalizing to biofilm growth in wells containing bacteria without peptide
# 366 Disruption of S. aureus MW2 established biofilms
# 367 We evaluated the ability of the citropin 1.1-derived peptides to disrupt established biofilms
# 368 following an established protocol with modifications (5). We prepared exponential cultures of S.
# 369 aureus MW2 (adjusted to 1 × 10^6 CFU/ml) in TSB medium (supplemented with 0.2% glucose)
# 370 from overnight grown cultures. We added 100 µl of bacterial culture to flat-bottomed 96-well
# 371 polystyrene microtiter plates (Cat no. 3595, Corning, NY, USA). We then incubated the plates at
# 372 37°C for 24 hours in static conditions to allow biofilm formation. After incubation, we carefully
# 373 pipetted out the TSB medium and washed the wells with PBS (Gibco, MD, USA) to remove
# 374 loosely attached planktonic cells. We treated the established biofilms in each well with 10 µl of
# 375 serially diluted 10× peptide solution, followed by the addition of 90 μl TSB medium
# 376 (supplemented with 0.2% glucose). We incubated the plates for another 24 h at 37°C before
# 377 processing biomass and live-cell contents. We calculated the concentration of peptide that disrupts
# 378 50% of established biofilms (MBEC50).
# [5] = test system: MRSA (S. aureus MW2) biofilm; assay: Biofilm viability assay on solid support (MW2); format: cell-based, Staphylococcus aureus; conditions: 40 μg/mL, 24 h established biofilm
# [6] = test system: VRSA (S. aureus VRS1) biofilm; assay: Biofilm viability assay on solid support (VRS1); format: cell-based, Staphylococcus aureus; conditions: 40 μg/mL, 24 h established biofilm
# S. aureus JE2 = test system: S. aureus JE2; design: method as in PMID 31336137; conditions: S. aureus JE2 (USA300 isolate); cited from earlier work
# Excerpt: In MRSA, antimicrobial resistance is linked to life-threatening infections, such as pneumonia, sepsis, and endocarditis ([48]). The situation is further complicated by the presence of S. aureus bacteria in alternative physiological states such as biofilms and persister cells, which are often neglected in early antimicrobial drug discovery stages even though they contribute substantially to chronic, relapsing infections ([49]).
molecule,measurement,setting,value
O=C(O)c1cn(C2CC2)c2cc(N3CCNCC3)c(F)cc2c1=O [Ciprofloxacin],Reduction of MRSA persister cells,[1],did not have any effect
Oc1c(Cl)cc(Cl)cc1Sc1cc(Cl)cc(Cl)c1O [bithionol],Reduction of VRSA persister cells,[2],1.5 logs
same,Reduction of exponentially growing VRSA,[2],1.0 logs
same,Reduction of MRSA persister cells,[1],1.5 logs
CC(=O)NC[C@H]1CN(c2ccc(N3CCOCC3)c(F)c2)C(=O)O1 [linezolid],Reduction of VRSA persister cells,[2],no impact
same,Reduction of exponentially growing VRSA,[2],0.7 logs
"CC[C@H](C)[C@H](NC(=O)CN)C(=O)NCC(=O)N[C@@H](C)C(=O)N[C@H](C(=O)N[C@@H](CC(C)C)C(=O)N[C@@H](CCCCN)C(=O)N[C@H](C(=O)N[C@@H](CC(C)C)C(=O)N[C@H](C(=O)N[C@H](C(=O)NCC(=O)N[C@@H](CC(C)C)C(=O)N1CCC[C@H]1C(=O)N[C@@H](C)C(=O)N[C@@H](CC(C)C)C(=O)N[C@H](C(=O)N[C@@H](CO)C(=O)N[C@@H](Cc1c[nH]c2ccccc12)C(=O)N[C@H](C(=O)N[C@@H](CCCCN)C(=O)N[C@@H](CCCNC(=N)N)C(=O)N[C@@H](CCCCN)C(=O)N[C@@H](CCCNC(=N)N)C(=O)N[C@@H](CCC(N)=O)C(=O)N[C@@H](CCC(N)=O)C(N)=O)[C@@H](C)CC)[C@@H](C)CC)[C@@H](C)O)[C@@H](C)O)C(C)C)C(C)C [melittin, reference compound]",Propidium iodide fluorescence (membrane permeation),S. aureus MW2 membrane,elevated fluorescence levels
same,MBIC50 (biomass reduced by 50%),[3],4.8 µg/mL
same,Time to elimination of exponential and persister cells of VRSA,[2]; approximately 1 × 10^7 CFU,≤ 120 min
same,MBEC50 (50% of biomass disrupted),[4],2.3 µg/mL
same,Reduction of MRSA biofilm burden on solid membrane,[5],1.85 logs
same,Reduction of VRSA biofilm burden on solid membrane,[6],3.9 logs
citropin 1.1,MIC,S. aureus JE2,32 mg/L
